Test results reported in ChEMBL document CHEMBL5335860, “Imidazole Bioisostere Activators of Endopeptidase Neurolysin with Enhanced Potency and Metabolic Stability” (ACS Med Chem Lett, 2024).
Active and inactive are the calls of the source. No cut-off for these calls is given here. Peptide text beside a SMILES is read from it. * marks the point of attachment. NHPhenethyl = c1ccc(CCN*)cc1

Assays:
[1] = biological target: T1, Neurolysin, mitochondrial (Homo sapiens, UniProt Q9BYT8); experiment: Activation of Nln (unknown origin) using Mca-Pro-Leu-Gly-Pro-D-Lys(DNP)- OH as substrate preincubated for 10 mins followed by substrate addition measured for 20 mins by fluorescence based assay
Target sequence in this assay (Q9BYT8 whole entry): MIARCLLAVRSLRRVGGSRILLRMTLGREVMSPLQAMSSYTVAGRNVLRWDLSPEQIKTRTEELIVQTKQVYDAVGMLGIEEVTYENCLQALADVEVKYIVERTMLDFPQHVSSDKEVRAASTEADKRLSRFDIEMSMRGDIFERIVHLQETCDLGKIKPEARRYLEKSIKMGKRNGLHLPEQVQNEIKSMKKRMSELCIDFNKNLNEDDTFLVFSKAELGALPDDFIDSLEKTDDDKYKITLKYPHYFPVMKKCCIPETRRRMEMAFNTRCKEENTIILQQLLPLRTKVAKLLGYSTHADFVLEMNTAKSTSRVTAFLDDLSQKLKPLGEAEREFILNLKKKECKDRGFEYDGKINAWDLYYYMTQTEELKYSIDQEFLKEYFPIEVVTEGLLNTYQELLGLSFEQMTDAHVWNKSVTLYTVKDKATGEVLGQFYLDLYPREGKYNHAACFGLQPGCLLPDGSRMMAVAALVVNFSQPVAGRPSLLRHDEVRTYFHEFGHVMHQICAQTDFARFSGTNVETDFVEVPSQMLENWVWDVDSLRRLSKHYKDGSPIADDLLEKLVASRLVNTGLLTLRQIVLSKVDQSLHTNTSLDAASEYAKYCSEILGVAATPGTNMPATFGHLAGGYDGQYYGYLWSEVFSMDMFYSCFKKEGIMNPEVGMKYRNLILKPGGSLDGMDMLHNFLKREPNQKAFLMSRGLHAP

[2] = biological target: T1, Neurolysin, mitochondrial; experiment: Activation of Nln (unknown origin) using Mca-Pro-Leu-Gly-Pro-D-Lys(DNP)- OH as substrate preincubated for 10 mins followed by substrate addition measured for 20 mins by fluorescence based assay relative to control; settings: filed as activator, time 30.0 min
Target sequence in this assay (Q9BYT8 38-704 limits assumed): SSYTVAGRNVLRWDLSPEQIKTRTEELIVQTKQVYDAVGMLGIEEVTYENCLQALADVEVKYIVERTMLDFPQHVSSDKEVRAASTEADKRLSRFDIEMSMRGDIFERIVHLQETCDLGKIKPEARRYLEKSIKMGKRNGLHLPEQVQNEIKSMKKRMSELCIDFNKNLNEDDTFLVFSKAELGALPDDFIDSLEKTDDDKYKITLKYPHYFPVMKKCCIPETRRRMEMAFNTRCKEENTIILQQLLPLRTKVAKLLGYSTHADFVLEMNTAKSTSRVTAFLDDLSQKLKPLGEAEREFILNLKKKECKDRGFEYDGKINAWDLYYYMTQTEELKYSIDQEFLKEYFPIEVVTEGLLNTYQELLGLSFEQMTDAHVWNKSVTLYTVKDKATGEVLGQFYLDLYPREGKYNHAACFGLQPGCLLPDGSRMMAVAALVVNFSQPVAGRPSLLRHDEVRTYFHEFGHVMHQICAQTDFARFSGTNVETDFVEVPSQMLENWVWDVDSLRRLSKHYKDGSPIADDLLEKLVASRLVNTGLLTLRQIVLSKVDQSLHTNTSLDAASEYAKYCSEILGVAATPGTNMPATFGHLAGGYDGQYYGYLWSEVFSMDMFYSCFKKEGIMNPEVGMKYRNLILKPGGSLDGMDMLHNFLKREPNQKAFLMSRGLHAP

[3] = biological target: Thimet oligopeptidase (Homo sapiens) (UniProt P52888); experiment: Inhibition of recombinant THOP1 (unknown origin)
[4] = Half life in mouse plasma at 500 ng/ml measured for 4 hrs by LC-MS/MS analysis; assay type: ADME, cell-free
[5] = biological target: Neprilysin (Homo sapiens) (UniProt P08473); experiment: Inhibition of N-terminal polyhis-tagged recombinant human neprilysin (52 to 750 residues) expressed in HEK293 cells; assay type: cell-based
[6] = biological target: Angiotensin-converting enzyme 2 (Homo sapiens) (UniProt Q9BYF1); experiment: Inhibition of C-terminal polyhis-tagged recombinant human ACE2 (1 to 740 residues) expressed in HEK293 cells; assay type: cell-based
[7] = Half life in mouse brain at 500 ng/ml measured for 4 hrs by LC-MS/MS analysis; assay type: ADME, tissue-based
[8] = Permeability coefficient in co-culture of primary mouse astrocytes and immortalized mouse endothelial cells at 10 ug/ml by BBB assay; assay type: ADME; settings: dose 10 µg/ml, read-out: Kp (converted)
[9] = biological target: Angiotensin-converting enzyme (Homo sapiens) (UniProt P12821); experiment: Inhibition of C-terminal 10-His-tagged recombinant human ACE (30 to 1261 residues) expressed in mouse myeloma cells; settings: Multiple myeloma cell
[10] = biological target: Thimet oligopeptidase (Homo sapiens) (UniProt P52888); experiment: Inhibition of recombinant THOP1 (unknown origin) relative to control; settings: concentration not given here
[11] = biological target: Angiotensin-converting enzyme 2 (Homo sapiens) (UniProt Q9BYF1); experiment: Inhibition of C-terminal polyhis-tagged recombinant human ACE2 (1 to 740 residues) expressed in HEK293 cells relative to control; assay type: cell-based; settings: concentration not given here
[12] = biological target: Angiotensin-converting enzyme (Homo sapiens) (UniProt P12821); experiment: Inhibition of C-terminal 10-His-tagged recombinant human ACE (30 to 1261 residues) expressed in mouse myeloma cells relative to control; settings: concentration not given here
[13] = biological target: Neprilysin (Homo sapiens) (UniProt P08473); experiment: Inhibition of N-terminal polyhis-tagged recombinant human neprilysin (52 to 750 residues) expressed in HEK293 cells relative to control; assay type: cell-based; settings: concentration not given here
[14] = Drug concentration in brain of MCAO mouse model at 4 mg/kg, iv measured after 30 mins; assay type: ADME, organism-based; settings: read-out: Ct
[15] = Elimination half life in MCAO mouse model at 4 mg/kg, iv; assay type: ADME, organism-based; settings: in vivo, read-out: beta t1/2

Chain of Neprilysin (Homo sapiens) (P08473 whole entry, the tested form may be a part): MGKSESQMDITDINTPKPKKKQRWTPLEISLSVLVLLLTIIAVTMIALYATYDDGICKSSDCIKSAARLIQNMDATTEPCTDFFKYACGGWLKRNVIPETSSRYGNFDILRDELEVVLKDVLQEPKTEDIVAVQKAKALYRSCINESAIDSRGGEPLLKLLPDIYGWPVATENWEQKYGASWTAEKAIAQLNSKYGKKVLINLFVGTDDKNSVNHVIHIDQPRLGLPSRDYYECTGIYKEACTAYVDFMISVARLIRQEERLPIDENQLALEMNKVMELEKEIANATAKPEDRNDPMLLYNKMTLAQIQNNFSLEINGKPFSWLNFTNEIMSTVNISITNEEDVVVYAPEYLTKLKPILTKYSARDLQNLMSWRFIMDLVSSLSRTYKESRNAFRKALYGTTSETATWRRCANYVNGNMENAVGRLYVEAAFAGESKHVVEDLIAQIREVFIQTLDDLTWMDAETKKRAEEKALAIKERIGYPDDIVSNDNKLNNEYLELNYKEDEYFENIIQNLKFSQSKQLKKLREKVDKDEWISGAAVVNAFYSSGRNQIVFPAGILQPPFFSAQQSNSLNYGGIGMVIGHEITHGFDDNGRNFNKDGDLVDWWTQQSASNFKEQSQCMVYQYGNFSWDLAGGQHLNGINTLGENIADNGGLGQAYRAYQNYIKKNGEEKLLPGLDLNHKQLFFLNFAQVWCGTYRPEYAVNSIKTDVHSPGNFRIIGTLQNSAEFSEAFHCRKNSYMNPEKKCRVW
Chain of Angiotensin-converting enzyme 2 (Homo sapiens) (Q9BYF1 18-805 limits assumed): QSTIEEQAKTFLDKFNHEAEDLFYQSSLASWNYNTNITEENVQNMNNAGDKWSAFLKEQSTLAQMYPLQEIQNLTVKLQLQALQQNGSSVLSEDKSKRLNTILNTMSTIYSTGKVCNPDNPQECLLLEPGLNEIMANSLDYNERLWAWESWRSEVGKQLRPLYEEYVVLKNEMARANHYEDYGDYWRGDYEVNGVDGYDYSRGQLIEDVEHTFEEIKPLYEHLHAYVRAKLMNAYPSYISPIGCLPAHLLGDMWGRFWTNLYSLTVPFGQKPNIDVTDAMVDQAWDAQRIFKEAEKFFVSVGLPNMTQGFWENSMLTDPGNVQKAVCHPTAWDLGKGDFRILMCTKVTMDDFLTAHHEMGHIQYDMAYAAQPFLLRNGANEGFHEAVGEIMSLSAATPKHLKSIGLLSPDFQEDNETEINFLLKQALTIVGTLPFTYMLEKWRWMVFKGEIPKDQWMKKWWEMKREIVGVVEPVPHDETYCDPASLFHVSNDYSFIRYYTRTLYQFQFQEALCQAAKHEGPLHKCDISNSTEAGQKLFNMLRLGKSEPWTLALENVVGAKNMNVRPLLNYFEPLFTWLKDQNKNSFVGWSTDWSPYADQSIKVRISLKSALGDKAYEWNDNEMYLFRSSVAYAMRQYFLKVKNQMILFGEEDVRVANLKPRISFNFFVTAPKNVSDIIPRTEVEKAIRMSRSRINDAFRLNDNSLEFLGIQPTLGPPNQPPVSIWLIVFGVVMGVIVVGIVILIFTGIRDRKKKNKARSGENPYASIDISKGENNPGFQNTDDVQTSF
Chain of Thimet oligopeptidase (Homo sapiens) (P52888 whole entry, the tested form may be a part): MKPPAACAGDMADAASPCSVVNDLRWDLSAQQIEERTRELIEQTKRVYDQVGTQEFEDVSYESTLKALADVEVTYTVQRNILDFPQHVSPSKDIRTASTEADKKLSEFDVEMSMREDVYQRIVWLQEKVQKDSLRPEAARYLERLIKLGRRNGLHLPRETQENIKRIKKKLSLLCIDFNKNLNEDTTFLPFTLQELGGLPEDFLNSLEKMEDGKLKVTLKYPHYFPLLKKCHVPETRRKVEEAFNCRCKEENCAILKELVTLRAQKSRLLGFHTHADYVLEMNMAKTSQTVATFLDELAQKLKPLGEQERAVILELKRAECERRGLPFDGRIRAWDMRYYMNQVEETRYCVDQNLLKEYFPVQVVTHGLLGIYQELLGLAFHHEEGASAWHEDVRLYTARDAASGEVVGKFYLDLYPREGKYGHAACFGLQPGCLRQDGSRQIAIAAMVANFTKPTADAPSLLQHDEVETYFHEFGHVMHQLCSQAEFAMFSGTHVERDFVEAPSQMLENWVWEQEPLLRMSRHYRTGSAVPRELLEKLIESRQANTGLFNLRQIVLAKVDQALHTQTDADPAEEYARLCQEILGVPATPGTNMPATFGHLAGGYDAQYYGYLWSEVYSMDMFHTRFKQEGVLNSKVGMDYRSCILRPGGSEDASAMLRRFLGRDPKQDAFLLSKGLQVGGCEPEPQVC
Chain of Angiotensin-converting enzyme (Homo sapiens) (P12821 whole entry, the tested form may be a part): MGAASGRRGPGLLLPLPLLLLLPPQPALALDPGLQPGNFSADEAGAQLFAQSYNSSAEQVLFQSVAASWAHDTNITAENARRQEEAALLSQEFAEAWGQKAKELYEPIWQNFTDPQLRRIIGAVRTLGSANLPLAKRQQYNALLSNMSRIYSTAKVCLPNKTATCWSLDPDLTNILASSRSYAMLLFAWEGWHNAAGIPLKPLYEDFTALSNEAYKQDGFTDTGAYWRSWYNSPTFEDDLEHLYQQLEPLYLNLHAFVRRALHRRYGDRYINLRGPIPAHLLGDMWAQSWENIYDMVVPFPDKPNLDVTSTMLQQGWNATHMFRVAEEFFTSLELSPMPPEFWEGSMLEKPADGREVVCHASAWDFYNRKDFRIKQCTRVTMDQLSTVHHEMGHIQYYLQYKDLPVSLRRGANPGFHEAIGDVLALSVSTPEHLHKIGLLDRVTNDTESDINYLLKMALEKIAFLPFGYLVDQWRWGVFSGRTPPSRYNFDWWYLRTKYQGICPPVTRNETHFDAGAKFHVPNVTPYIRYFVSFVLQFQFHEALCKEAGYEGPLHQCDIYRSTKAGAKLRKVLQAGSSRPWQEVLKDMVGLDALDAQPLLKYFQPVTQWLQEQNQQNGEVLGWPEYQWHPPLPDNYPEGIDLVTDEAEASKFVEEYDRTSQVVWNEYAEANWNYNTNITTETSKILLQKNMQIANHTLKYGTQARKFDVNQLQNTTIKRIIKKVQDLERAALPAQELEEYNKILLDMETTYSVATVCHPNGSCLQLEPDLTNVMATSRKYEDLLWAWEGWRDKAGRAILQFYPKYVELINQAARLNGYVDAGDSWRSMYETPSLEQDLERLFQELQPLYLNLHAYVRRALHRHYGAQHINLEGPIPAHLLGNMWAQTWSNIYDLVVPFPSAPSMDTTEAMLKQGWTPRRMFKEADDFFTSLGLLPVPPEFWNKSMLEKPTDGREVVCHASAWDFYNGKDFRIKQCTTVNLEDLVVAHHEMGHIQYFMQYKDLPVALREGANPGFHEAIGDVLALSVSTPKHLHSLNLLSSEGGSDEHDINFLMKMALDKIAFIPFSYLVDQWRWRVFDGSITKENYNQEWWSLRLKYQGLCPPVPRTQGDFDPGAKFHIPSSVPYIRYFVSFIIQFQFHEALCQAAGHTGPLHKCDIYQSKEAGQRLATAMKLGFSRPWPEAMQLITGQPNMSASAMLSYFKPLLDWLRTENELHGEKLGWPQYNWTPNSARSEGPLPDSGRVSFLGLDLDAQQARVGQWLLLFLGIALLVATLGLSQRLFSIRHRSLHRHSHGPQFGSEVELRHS

Row | Compound | Emax [2] [%] | EC50 ([1]; read-out: EC50) [µM] | also measured
1 | N[C@@H](Cc1c[nH]cn1)C(=O)NCC(=O)c1ccc2ccccc2c1 | – | – | EC50 [1]: Not Active
2 | N[C@@H](Cc1c[nH]cn1)c1ncc(-c2ccc3ccccc3c2)[nH]1 | 268 | 5.5 | –
3 | N[C@@H](Cc1c[nH]cn1)c1ncc(-c2ccc(Cl)cc2)[nH]1 | 318 | 2.9 | –
4 | CC(C)[C@H](NC(=O)[C@@H](N)Cc1c[nH]cn1)C(=O)NCc1cccc2ccccc12 | – | – | EC50 [1]: Not Active
5 | N[C@@H](Cc1c[nH]cn1)C(=O)NCCc1ccc(F)cc1 | – | 11.6 | –
6 | N[C@H](Cc1c[nH]cn1)c1ncc(-c2ccc(Cl)cc2)[nH]1 | 282 | 2 | inhibition [3]: inactive; half-life at 500 ng/ml [4]: 8.15 h; inhibition [5]: inactive; inhibition [6]: inactive; half-life at 500 ng/ml [7]: 1.81 h; Papp at 10 ug/ml [8]: 6 ×10⁻⁶ cm/s; inhibition [9]: inactive
7 | N[C@H](Cc1c[nH]cn1)C(=O)N1CCC(Cc2ccccc2F)CC1 | 272 | 5.4 | –
8 | N[C@@H](Cc1c[nH]cn1)C(=O)N[C@@H](Cc1ccccc1)C(=O)NCCc1ccccc1 (H-His-Phe-NHPhenethyl) | 178 | 5.4 | –
9 | N[C@@H](Cc1c[nH]cn1)C(=O)NCC(=O)c1ccc(Cl)cc1 | 130 | 33.7 | –
10 | N[C@H](Cc1c[nH]cn1)c1ncc(-c2ccc3ccccc3c2)[nH]1 | 138 | 6.8 | –
11 | N[C@@H](Cc1c[nH]cn1)c1ncc(-c2cccc3ccccc23)[nH]1 | 244 | 4.1 | half-life at 500 ng/ml [4]: > 16.7 h; inhibition [10]: 20%; inhibition [11]: 20%; inhibition [12]: 20%; half-life at 500 ng/ml [7]: 1.77 h; Papp at 10 ug/ml [8]: 13.8 ×10⁻⁶ cm/s; inhibition [13]: 20%
12 | N[C@@H](Cc1c[nH]cn1)C(=O)N1CCc2ccccc2C1 | 380 | 32.6 | –
13 | N[C@@H](Cc1c[nH]cn1)C(=O)NCCc1ccc(Cl)cc1 | 404 | 25 | –
14 | N[C@@H](Cc1c[nH]cn1)C(=O)N[C@@H](Cc1ccccc1)C(=O)NCc1cccc2ccccc12 | – | – | EC50 [1]: Not Active
15 | N[C@@H](Cc1c[nH]cn1)C(=O)NCc1cccc2ccccc12 | 264 | – | half-life at 500 ng/ml [4]: > 16.7 h; half-life at 500 ng/ml [7]: 1.34 h; Papp at 10 ug/ml [8]: 18.3 ×10⁻⁶ cm/s
16 | N[C@@H](Cc1c[nH]cn1)C(=O)N(CCc1c[nH]c2ccccc12)Cc1ccccc1 | 307 | 5.2 | –
17 | N[C@@H](Cc1c[nH]cn1)C(=O)Nc1cccc2cccnc12 | – | 7 | concentration at 0.5 h [14]: 260 nM; Papp at 10 ug/ml [8]: 19 ×10⁻⁶ cm/s; half-life [15]: 0.5 h

Second part, led by results:

Row | Emax [2] [%] | EC50 ([1]; read-out: EC50) [µM] | Compound | also measured
18 | 237 | 4.3 | N[C@@H](Cc1c[nH]cn1)C(=O)N1CCC(Cc2ccccc2F)CC1 | –
19 | 324 | 3.6 | CN(Cc1cccc2ccccc12)C(=O)[C@H](N)Cc1c[nH]cn1 | –
20 | 345 | 3.8 | CN(Cc1cccc2ccccc12)C(=O)[C@@H](N)Cc1c[nH]cn1 | –
21 | 467 | 252 | N[C@@H](Cc1c[nH]cn1)C(=O)Nc1ccccc1 | –
22 | – | 85.5 | N[C@@H](Cc1c[nH]cn1)C(=O)N[C@@H](Cc1ccccc1)C(=O)O (H-His-Phe-OH) | half-life at 500 ng/ml [4]: 0.57 h; Papp at 10 ug/ml [8]: 1.17 ×10⁻⁶ cm/s
23 | 279 | 3.4 | N[C@@H](Cc1c[nH]cn1)C(=S)NCc1cccc2ccccc12 | –
24 | 211 | 4.4 | N[C@@H](Cc1c[nH]cn1)C(=O)NCc1ccc2ccccc2c1 | –
